Results on three compounds are retold here after ChEMBL document CHEMBL1201862, “PubChem BioAssay data set” (2004).

The target of assay [1] is T1, Caspase-3 (Homo sapiens, UniProt P42574).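 Further: Dose-response selectivity test against caspase-3 for candidate inhibitors of sentrin-specific proteases (SENPs).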
T1 sequence (P42574 whole entry): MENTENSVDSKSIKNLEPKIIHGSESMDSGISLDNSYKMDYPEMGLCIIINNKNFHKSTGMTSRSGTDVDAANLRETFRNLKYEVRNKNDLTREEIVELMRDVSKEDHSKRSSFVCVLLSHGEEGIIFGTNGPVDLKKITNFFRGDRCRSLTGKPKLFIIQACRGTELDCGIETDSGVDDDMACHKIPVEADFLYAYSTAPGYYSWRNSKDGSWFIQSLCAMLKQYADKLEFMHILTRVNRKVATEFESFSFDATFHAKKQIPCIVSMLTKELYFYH
Type of assay: functional.

Assay [2] has as its target T2, Sentrin-specific protease 8 (Homo sapiens, UniProt Q96LD8).
T2 sequence (Q96LD8 whole entry): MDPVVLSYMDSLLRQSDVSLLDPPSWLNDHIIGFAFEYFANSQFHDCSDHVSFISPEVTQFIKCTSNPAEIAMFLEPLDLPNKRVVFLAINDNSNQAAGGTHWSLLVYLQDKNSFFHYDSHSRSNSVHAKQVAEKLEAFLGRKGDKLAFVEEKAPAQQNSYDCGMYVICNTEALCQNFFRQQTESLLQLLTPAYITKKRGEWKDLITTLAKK
The format is functional.

Assay [3] deals with T3, Histone-lysine N-methyltransferase NSD2 (Homo sapiens, UniProt O96028).
T3 sequence (O96028 whole entry): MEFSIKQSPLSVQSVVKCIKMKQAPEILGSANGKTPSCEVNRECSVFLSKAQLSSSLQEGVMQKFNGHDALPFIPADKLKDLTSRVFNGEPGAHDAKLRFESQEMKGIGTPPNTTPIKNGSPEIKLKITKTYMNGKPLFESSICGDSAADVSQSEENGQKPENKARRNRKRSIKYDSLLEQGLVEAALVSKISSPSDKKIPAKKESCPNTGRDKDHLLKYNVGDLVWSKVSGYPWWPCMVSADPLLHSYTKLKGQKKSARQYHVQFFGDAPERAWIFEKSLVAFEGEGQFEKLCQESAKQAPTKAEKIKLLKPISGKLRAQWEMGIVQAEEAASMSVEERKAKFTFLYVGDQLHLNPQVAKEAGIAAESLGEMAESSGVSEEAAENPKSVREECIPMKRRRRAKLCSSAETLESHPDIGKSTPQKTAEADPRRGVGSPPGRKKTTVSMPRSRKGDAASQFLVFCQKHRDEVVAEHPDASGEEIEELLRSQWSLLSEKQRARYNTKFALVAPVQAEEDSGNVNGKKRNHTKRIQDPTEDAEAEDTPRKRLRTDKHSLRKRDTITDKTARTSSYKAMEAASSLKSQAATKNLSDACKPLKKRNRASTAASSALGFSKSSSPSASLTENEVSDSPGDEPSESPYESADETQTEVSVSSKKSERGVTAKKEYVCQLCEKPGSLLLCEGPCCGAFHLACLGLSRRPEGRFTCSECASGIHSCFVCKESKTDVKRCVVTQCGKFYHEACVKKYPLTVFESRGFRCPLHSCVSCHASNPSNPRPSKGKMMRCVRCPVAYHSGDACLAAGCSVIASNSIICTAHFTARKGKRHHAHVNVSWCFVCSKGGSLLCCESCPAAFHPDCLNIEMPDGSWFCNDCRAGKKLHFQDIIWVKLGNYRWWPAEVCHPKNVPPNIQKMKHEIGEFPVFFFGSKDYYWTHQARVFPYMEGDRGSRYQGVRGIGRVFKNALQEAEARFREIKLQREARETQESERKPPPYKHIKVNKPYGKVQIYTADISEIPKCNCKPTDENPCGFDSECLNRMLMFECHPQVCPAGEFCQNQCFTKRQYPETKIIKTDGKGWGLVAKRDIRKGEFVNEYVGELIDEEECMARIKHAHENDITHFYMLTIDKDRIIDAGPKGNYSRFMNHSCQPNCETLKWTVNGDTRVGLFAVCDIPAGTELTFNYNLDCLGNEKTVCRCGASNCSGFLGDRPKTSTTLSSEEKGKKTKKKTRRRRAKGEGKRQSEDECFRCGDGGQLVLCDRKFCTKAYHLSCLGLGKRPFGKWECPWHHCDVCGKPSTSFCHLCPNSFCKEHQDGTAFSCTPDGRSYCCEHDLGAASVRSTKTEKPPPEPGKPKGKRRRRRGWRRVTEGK
Type of assay: biochemical.

For assay [4], the target named is T4, Tyrosyl-DNA phosphodiesterase 2 (Homo sapiens, UniProt O95551).
T4 sequence (O95551 whole entry): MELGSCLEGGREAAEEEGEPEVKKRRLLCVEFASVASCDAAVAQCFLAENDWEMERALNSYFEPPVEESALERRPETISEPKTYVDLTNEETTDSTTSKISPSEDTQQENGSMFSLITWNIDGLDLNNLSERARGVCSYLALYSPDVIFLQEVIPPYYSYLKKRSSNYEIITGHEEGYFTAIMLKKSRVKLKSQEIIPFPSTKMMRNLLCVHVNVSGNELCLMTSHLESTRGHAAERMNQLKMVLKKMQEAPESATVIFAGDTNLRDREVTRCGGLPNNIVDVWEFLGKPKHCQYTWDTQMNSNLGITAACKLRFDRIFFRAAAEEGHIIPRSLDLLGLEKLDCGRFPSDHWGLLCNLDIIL
Description: potency against TDP2 phosphodiesterase activity – biochemical, epi absorbance, IC50, dose response (AID 743297).

Assay [5] addresses Acetyl-CoA acetyltransferase/HMG-CoA reductase (Enterococcus faecalis, UniProt Q9FD70). Kind of assay: class II HMG-CoA reductase inhibition potency – biochemical, Enterococcus faecalis, confirmation (AID 1233). Type of assay: functional.
The target of assay [6] is T5, Endoribonuclease toxin MazF (Escherichia coli K-12, UniProt P0AE70).
T5 sequence (P0AE70 whole entry): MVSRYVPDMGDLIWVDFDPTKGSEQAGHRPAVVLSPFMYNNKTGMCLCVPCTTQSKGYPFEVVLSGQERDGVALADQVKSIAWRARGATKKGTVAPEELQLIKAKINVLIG
Kind of assay: substrate-only fluorescence increase artefacts – biochemical, single-stranded RNase substrate, counter-screen for MazEF activator project, dose response (AID 588502). The format is functional. (In general: Counterscreens check selectivity or assay interference.)

Assay [7] deals with T2, Sentrin-specific protease 8. Type of assay: functional. This is another data set of the same source.
Assay [8] has as its system Vero. Description: viability of Vero cells under compound – cytotoxicity control for flavivirus capping enzyme inhibitors (AID 588742). The format is functional. Particulars: Chlorocebus sabaeus.
For assay [9], the system named is INS1. Kind of assay: INS-1E survival protection against cytokine death – cell-based, luminescence, retest, dose response (AID 449756).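 Further: cell death triggered by IL-1 beta plus TNF-alpha plus IFN-gamma mixture; protective hits raise ATP signal compared with cytokine alone wells.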 The format is functional. Particulars: Rattus norvegicus.

Active and inactive are the calls of the source.

Turning to `CC(C)=CCC1=C(OCC(=O)O)C(=O)c2ccccc2C1=O`, the IC50 in [1] is 15 µM (active); in assay [2], 3.91 µM (active); in assay [4], 23.6 µM (inactive). The AC50 in assay [3] was 3.99 µM (active).
Turning to `Cc1[nH][nH]c(=O)c1C(c1c(C)[nH][nH]c1=O)c1cn(Cc2ccccc2Cl)c2ccccc12`, the IC50 in assay [5] is 91 µM (active); in assay [7] it was 4.89 µM (active); in [4], 54.2 µM (inactive). Further, the EC50 in assay [6] was > 99 µM (inactive). Also, in assay [3], the AC50 was 17.8 µM (active).
For `Cc1cccc(NC2=C(NC(=O)c3ccccc3)C(=O)c3ccccc3C2=O)c1`, in assay [8], the CC50 is > 40 µM (active). Also, the AC50 in assay [9] was 7.52 µM (active).

The IC50 is the concentration that inhibits the measured activity by half. As usually defined, the AC50 is the concentration giving half of the maximal activity seen. Broadly, the EC50 is the concentration at which the effect is half-maximal. As a reminder, the CC50 is the concentration that lowers cell viability or growth by half.
